Measured values from the supplement of paper PMC10307832.

What was measured:
Assay in all cases: relative viability (nuclei count vs DMSO), 5 days (fraction); higher = more cells survive
[1] = compound: Cn1cc(-c2cnc3ccc4ccc(CS(=O)(=O)NCc5ccccn5)cc4c(=O)c3c2)cn1 [MK-8033] + Cc1nc(NC(=O)N2CCC[C@H]2C(N)=O)sc1-c1ccnc(C(C)(C)C(F)(F)F)c1 [Alpelisib] (partner 2 µM)
Summary of the method: (§1)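 Relative viability divides the nuclei count in treated wells by that in vehicle wells. Lung cancer cell lines were seeded in 1536-well plates, dosed by pin tool the next day, and fixed and stained after 5 days in one step with final 0.05% Triton X-100, 1% formaldehyde and 1 ug/ml Hoechst. Dosing was a single drug or a fixed anchor-drug dose plus five library-drug doses (not always all listed) in √10 steps, and values are medians of duplicate plates imaged at 4×.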

[2] = compound: Cn1cc(-c2cnc3ccc4ccc(CS(=O)(=O)NCc5ccccn5)cc4c(=O)c3c2)cn1 [MK-8033] + COc1cccc2cc(-c3nc([C@H]4CC[C@H](C(=O)O)CC4)n4ncnc(N)c34)[nH]c12 [OSI-027] (partner 0.5 µM)
Summary of the method: as §1

[3] = compound: Cn1cc(-c2cnc3ccc4ccc(CS(=O)(=O)NCc5ccccn5)cc4c(=O)c3c2)cn1 [MK-8033] + C[C@@H](Oc1cc(-c2cnn(C3CCNCC3)c2)cnc1N)c1c(Cl)ccc(F)c1Cl [Crizotinib] (partner 1 µM)
Summary of the method: as §1

[4] = compound: Cn1cc(-c2cnc3ccc4ccc(CS(=O)(=O)NCc5ccccn5)cc4c(=O)c3c2)cn1 [MK-8033] + COc1cc2c(Oc3ccc(NC(=O)C4(C(=O)Nc5ccc(F)cc5)CC4)cc3F)ccnc2cc1OCCCN1CCOCC1 [Foretinib] (partner 0.25 µM)
Summary of the method: as §1

With NCI-H1666 the relative viability ([1]; first compound 0.02 µM) was 0.937, the relative viability ([1]; first compound 0.06325 µM) was 1.01 and the relative viability ([1]; first compound 0.2 µM) was 0.874. It also gave a relative viability ([1]; first compound 0.6325 µM) of 0.998, a relative viability ([1]; first compound 2 µM) of 0.942 and a relative viability ([2]; first compound 0.02 µM) of 0.886. It also gave a relative viability ([2]; first compound 0.06325 µM) of 0.754, a relative viability ([2]; first compound 0.2 µM) of 0.771 and a relative viability ([2]; first compound 0.6325 µM) of 0.94. For the same cell line, the relative viability ([2]; first compound 2 µM) was 0.803, the relative viability ([3]; first compound 0.02 µM) was 0.909 and the relative viability ([3]; first compound 0.06325 µM) was 0.942. It also gave a relative viability ([3]; first compound 0.2 µM) of 0.982, a relative viability ([3]; first compound 0.6325 µM) of 0.999 and a relative viability ([3]; first compound 2 µM) of 1.01. The relative viability ([4]; first compound 0.02 µM) was 1.02, the relative viability ([4]; first compound 0.06325 µM) was 0.842 and the relative viability ([4]; first compound 0.2 µM) was 0.911. For the same cell line, the relative viability ([4]; first compound 0.6325 µM) was 0.953 and the relative viability ([4]; first compound 2 µM) was 1.01.
In the case of NCI-H1734, the relative viability ([1]; first compound 0.02 µM) is reported as 0.628, the relative viability ([1]; first compound 0.06325 µM) is reported as 0.57 and the relative viability ([1]; first compound 0.2 µM) is reported as 0.644. For the same cell line, the relative viability ([1]; first compound 0.6325 µM) was 0.654, the relative viability ([1]; first compound 2 µM) was 0.72 and the relative viability ([2]; first compound 0.02 µM) was 0.59. The relative viability ([2]; first compound 0.06325 µM) was 0.508, the relative viability ([2]; first compound 0.2 µM) was 0.612 and the relative viability ([2]; first compound 0.6325 µM) was 0.632. For the same cell line, the relative viability ([2]; first compound 2 µM) was 0.547, the relative viability ([3]; first compound 0.02 µM) was 0.682 and the relative viability ([3]; first compound 0.06325 µM) was 0.547. It also gave a relative viability ([3]; first compound 0.2 µM) of 0.645, a relative viability ([3]; first compound 0.6325 µM) of 0.508 and a relative viability ([3]; first compound 2 µM) of 0.595. The relative viability ([4]; first compound 0.02 µM) was 0.829, the relative viability ([4]; first compound 0.06325 µM) was 0.665 and the relative viability ([4]; first compound 0.2 µM) was 0.78. It also gave a relative viability ([4]; first compound 0.6325 µM) of 0.861 and a relative viability ([4]; first compound 2 µM) of 0.856.
Cell Line NCI-H1755 has a relative viability ([1]; first compound 0.02 µM) of 0.931, a relative viability ([1]; first compound 0.06325 µM) of 0.883 and a relative viability ([1]; first compound 0.2 µM) of 0.857. It also gave a relative viability ([1]; first compound 0.6325 µM) of 0.909, a relative viability ([1]; first compound 2 µM) of 0.849 and a relative viability ([2]; first compound 0.02 µM) of 0.625. For the same cell line, the relative viability ([2]; first compound 0.06325 µM) was 0.676, the relative viability ([2]; first compound 0.2 µM) was 0.681 and the relative viability ([2]; first compound 0.6325 µM) was 0.717. It also gave a relative viability ([2]; first compound 2 µM) of 0.822, a relative viability ([3]; first compound 0.02 µM) of 0.811 and a relative viability ([3]; first compound 0.06325 µM) of 0.782. It also gave a relative viability ([3]; first compound 0.2 µM) of 0.878, a relative viability ([3]; first compound 0.6325 µM) of 0.847 and a relative viability ([3]; first compound 2 µM) of 0.803. The relative viability ([4]; first compound 0.02 µM) was 0.961, the relative viability ([4]; first compound 0.06325 µM) was 0.884 and the relative viability ([4]; first compound 0.2 µM) was 0.865. For the same cell line, the relative viability ([4]; first compound 0.6325 µM) was 0.889 and the relative viability ([4]; first compound 2 µM) was 0.949.
NCI-H1915 gave a relative viability ([1]; first compound 0.02 µM) of 1.02, a relative viability ([1]; first compound 0.06325 µM) of 1 and a relative viability ([1]; first compound 0.2 µM) of 1.04. It also gave a relative viability ([1]; first compound 0.6325 µM) of 1.11, a relative viability ([1]; first compound 2 µM) of 1.02 and a relative viability ([2]; first compound 0.02 µM) of 0.649. It also gave a relative viability ([2]; first compound 0.06325 µM) of 0.559, a relative viability ([2]; first compound 0.2 µM) of 0.62 and a relative viability ([2]; first compound 0.6325 µM) of 0.65. It also gave a relative viability ([2]; first compound 2 µM) of 0.596, a relative viability ([3]; first compound 0.02 µM) of 0.935 and a relative viability ([3]; first compound 0.06325 µM) of 0.896. The relative viability ([3]; first compound 0.2 µM) was 0.802, the relative viability ([3]; first compound 0.6325 µM) was 0.885 and the relative viability ([3]; first compound 2 µM) was 0.911. The relative viability ([4]; first compound 0.02 µM) was 1.08, the relative viability ([4]; first compound 0.06325 µM) was 0.997 and the relative viability ([4]; first compound 0.2 µM) was 1.05. The relative viability ([4]; first compound 0.6325 µM) was 1.07 and the relative viability ([4]; first compound 2 µM) was 1.11.
With NCI-H1944 the relative viability ([1]; first compound 0.02 µM) was 0.82, the relative viability ([1]; first compound 0.2 µM) was 0.747 and the relative viability ([1]; first compound 0.6325 µM) was 0.849. For the same cell line, the relative viability ([1]; first compound 2 µM) was 0.873, the relative viability ([2]; first compound 0.02 µM) was 0.436 and the relative viability ([2]; first compound 0.06325 µM) was 0.292. It also gave a relative viability ([2]; first compound 0.2 µM) of 0.4, a relative viability ([2]; first compound 0.6325 µM) of 0.4 and a relative viability ([2]; first compound 2 µM) of 0.404. It also gave a relative viability ([3]; first compound 0.02 µM) of 1.12, a relative viability ([3]; first compound 0.2 µM) of 1.02 and a relative viability ([3]; first compound 0.6325 µM) of 1.06. For the same cell line, the relative viability ([3]; first compound 2 µM) was 1.11, the relative viability ([4]; first compound 0.02 µM) was 0.88 and the relative viability ([4]; first compound 0.06325 µM) was 0.773. The relative viability ([4]; first compound 0.2 µM) was 0.852, the relative viability ([4]; first compound 0.6325 µM) was 0.962 and the relative viability ([4]; first compound 2 µM) was 0.927.
Work on NCI-H1975 yielded a relative viability ([1]; first compound 0.02 µM) of 0.604, a relative viability ([1]; first compound 0.06325 µM) of 0.557 and a relative viability ([1]; first compound 0.2 µM) of 0.584. For the same cell line, the relative viability ([1]; first compound 0.6325 µM) was 0.571, the relative viability ([1]; first compound 2 µM) was 0.649 and the relative viability ([2]; first compound 0.02 µM) was 0.692. It also gave a relative viability ([2]; first compound 0.06325 µM) of 0.645, a relative viability ([2]; first compound 0.2 µM) of 0.563 and a relative viability ([2]; first compound 2 µM) of 0.571. It also gave a relative viability ([3]; first compound 0.02 µM) of 0.896, a relative viability ([3]; first compound 0.06325 µM) of 0.924 and a relative viability ([3]; first compound 0.2 µM) of 0.934. For the same cell line, the relative viability ([3]; first compound 0.6325 µM) was 1.06, the relative viability ([3]; first compound 2 µM) was 0.952 and the relative viability ([4]; first compound 0.02 µM) was 0.944. For the same cell line, the relative viability ([4]; first compound 0.06325 µM) was 0.944, the relative viability ([4]; first compound 0.2 µM) was 0.875 and the relative viability ([4]; first compound 2 µM) was 1.
NCI-H1993 gave a relative viability ([1]; first compound 0.02 µM) of 0.612, a relative viability ([1]; first compound 0.06325 µM) of 0.611 and a relative viability ([1]; first compound 0.2 µM) of 0.649. It also gave a relative viability ([1]; first compound 0.6325 µM) of 0.714, a relative viability ([1]; first compound 2 µM) of 0.675 and a relative viability ([2]; first compound 0.02 µM) of 0.519. For the same cell line, the relative viability ([2]; first compound 0.06325 µM) was 0.583, the relative viability ([2]; first compound 0.2 µM) was 0.561 and the relative viability ([2]; first compound 0.6325 µM) was 0.598. For the same cell line, the relative viability ([2]; first compound 2 µM) was 0.527, the relative viability ([3]; first compound 0.02 µM) was 0.734 and the relative viability ([3]; first compound 0.06325 µM) was 0.658. For the same cell line, the relative viability ([3]; first compound 0.2 µM) was 0.836, the relative viability ([3]; first compound 0.6325 µM) was 0.668 and the relative viability ([3]; first compound 2 µM) was 0.819. It also gave a relative viability ([4]; first compound 0.02 µM) of 0.696, a relative viability ([4]; first compound 0.06325 µM) of 0.774 and a relative viability ([4]; first compound 0.2 µM) of 0.789. The relative viability ([4]; first compound 0.6325 µM) was 0.73 and the relative viability ([4]; first compound 2 µM) was 0.949.
For NCI-H2009, the relative viability ([1]; first compound 0.02 µM) was 1.13, the relative viability ([1]; first compound 0.06325 µM) was 1.12 and the relative viability ([1]; first compound 0.2 µM) was 1.09. It also gave a relative viability ([1]; first compound 0.6325 µM) of 1.11, a relative viability ([1]; first compound 2 µM) of 1.14 and a relative viability ([2]; first compound 0.02 µM) of 0.628. For the same cell line, the relative viability ([2]; first compound 0.06325 µM) was 0.612, the relative viability ([2]; first compound 0.2 µM) was 0.597 and the relative viability ([2]; first compound 0.6325 µM) was 0.617. The relative viability ([2]; first compound 2 µM) was 0.626, the relative viability ([3]; first compound 0.02 µM) was 1.08 and the relative viability ([3]; first compound 0.06325 µM) was 1.07. It also gave a relative viability ([3]; first compound 0.2 µM) of 0.579, a relative viability ([3]; first compound 0.6325 µM) of 1.11 and a relative viability ([3]; first compound 2 µM) of 1.03. For the same cell line, the relative viability ([4]; first compound 0.02 µM) was 1.25, the relative viability ([4]; first compound 0.06325 µM) was 1.25 and the relative viability ([4]; first compound 0.2 µM) was 1.19. For the same cell line, the relative viability ([4]; first compound 0.6325 µM) was 1.24 and the relative viability ([4]; first compound 2 µM) was 1.14.
